Columns and labels:
Phakopsora pachyrhizi = Phakopsora pachyrhizi / soybean / leaf disc preventative (Asian soybean rust); format: in vivo; details: foliar, 200 ppm in the applied formulation, soybean leaf disks, inoculated one day after application, assessed 12 to 14 days after application, read-out: disease control compared to untreated control leaf disks
Procedure, shortened: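 Read-out is percent disease control relative to untreated check discs, assessed once untreated discs show adequate disease, 12 to 14 days after application. Compounds, tested at 200 ppm in the applied formulation, are sprayed onto soybean leaf discs one day before inoculation with a spore suspension.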

[1] = system: Puccinia recondita f. Sp. Tritici; assay: Puccinia recondita f. sp. tritici / wheat / leaf disc preventative (brown rust); format: in vivo; details: foliar, 200 ppm in the applied formulation, wheat leaf segments cv. Kanzler, inoculated 1 day after application, assessed 7 to 9 days after application, read-out: disease control compared to untreated control leaf disks
Protocol: Leaf disks or leaf segments of various plant species are cut from plants grown in a greenhouse. The cut leaf disks or segments are placed in multiwell plates (24-well format) onto water agar. The leaf disks are sprayed with a test solution before (preventative) or after (curative) inoculation. Compounds to be tested are prepared as DMSO solutions (max. 10 mg/ml) which are diluted to the appropriate concentration with 0.025% Tween20 just before spraying. The inoculated leaf disks or segments are incubated under defined conditions (temperature, relative humidity, light, etc.) according to the respective test system. A single evaluation of disease level is carried out 3 to 14 days after inoculation, depending on the pathosystem. Percent disease control relative to the untreated check leaf disks or segments is then calculated. Wheat leaf segments cv. Kanzler were placed on agar in multiwell plates (24-well format) and sprayed with the formulated test compound diluted in water. The leaf disks were inoculated with a spore suspension of the fungus 1 day after application. The inoculated leaf segments were incubated at 19° C. and 75% relative humidity (rh) under a light regime of 12 hours light/12 hours darkness in a climate cabinet and the activity of a compound was assessed as percent disease control compared to untreated when an appropriate level of disease damage appears in untreated check leaf segments (7 to 9 days after application). The following compounds at 200 ppm in the applied formulation give at least 80% disease control in this test when compared to untreated control leaf disks under the same conditions, which show extensive disease development.

[2] = system: Glomerella lagenarium (Colletotrichum lagenarium); assay: Glomerella lagenarium (Colletotrichum lagenarium) liquid culture / cucumber / preventative (anthracnose); format: cell-based; details: Colletotrichum orbiculare; 20 ppm in the applied formulation; liquid culture in PDB, 24° C.; 3 to 4 days after application; read-out: disease control compared to untreated control (inhibition of growth measured photometrically)
Procedure, shortened: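 PDB broth seeded with cryo-stored conidia, added onto compound (DMSO solution) in 96-well plates; 24° C.; photometric growth read at 3–4 d post-application; % inhibition vs untreated check.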

[3] = system: Puccinia recondita f. Sp. Tritici; assay: Puccinia recondita f. sp. tritici / wheat / leaf disc curative (brown rust); format: in vivo; details: foliar, 200 ppm in the applied formulation, wheat leaf segments cv. Kanzler, applied 1 day after inoculation, assessed 6 to 8 days after application, read-out: disease control compared to untreated control leaf disks
Protocol: Leaf disks or leaf segments of various plant species are cut from plants grown in a greenhouse. The cut leaf disks or segments are placed in multiwell plates (24-well format) onto water agar. The leaf disks are sprayed with a test solution before (preventative) or after (curative) inoculation. Compounds to be tested are prepared as DMSO solutions (max. 10 mg/ml) which are diluted to the appropriate concentration with 0.025% Tween20 just before spraying. The inoculated leaf disks or segments are incubated under defined conditions (temperature, relative humidity, light, etc.) according to the respective test system. A single evaluation of disease level is carried out 3 to 14 days after inoculation, depending on the pathosystem. Percent disease control relative to the untreated check leaf disks or segments is then calculated.
Wheat leaf segments cv. Kanzler are placed on agar in multiwell plates (24-well format). The leaf segments are then inoculated with a spore suspension of the fungus. Plates were stored in darkness at 19° C. and 75% relative humidity. The formulated test compound diluted in water was applied 1 day after inoculation. The leaf segments were incubated at 19° C. and 75% relative humidity under a light regime of 12 hours light/12 hours darkness in a climate cabinet and the activity of a compound was assessed as percent disease control compared to untreated when an appropriate level of disease damage appears in untreated check leaf segments (6 to 8 days after application).
The following compounds at 200 ppm in the applied formulation give at least 80% disease control in this test when compared to untreated control leaf disks under the same conditions, which show extensive disease development.

| melting point [°C] | SMILES | pest or weed control at 200 ppm (Phakopsora pachyrhizi) [%] | pest or weed control at 200 ppm [1] [%] | inhibition at 20 ppm [2] [%] | pest or weed control at 200 ppm [3] [%] |
| --- | --- | --- | --- | --- | --- |
| 108 to 114 | [O-][S+](c1ccc(-c2noc(C(F)(F)F)n2)cc1)C1CCCCC1 (centres unmarked) [Compound 2.3, 3-(4-cyclohexylsulfinylphenyl)-5-(trifluoromethyl)-1,2,4-oxadiazole] | ≥ 80 | ≥ 80 | ≥ 80 | ≥ 80 |
| 85 to 92 | O=S(=O)(c1ccc(-c2noc(C(F)(F)F)n2)cc1)C1CCCC1 [Compound 3.16, 3-(4-cyclopentylsulfonylphenyl)-5-(trifluoromethyl)-1,2,4-oxadiazole] | ≥ 80 | ≥ 80 | ≥ 80 | ≥ 80 |
| 81 to 85 | [O-][S+](CCc1ccccc1)c1ccc(-c2noc(C(F)(F)F)n2)cc1 (centres unmarked) [Compound 2.8, 3-[4-(2-phenylethylsulfinyl)phenyl]-5-(trifluoromethyl)-1,2,4-oxadiazole] | ≥ 80 | ≥ 80 | ≥ 80 | ≥ 80 |
| 59 to 62 | FC(F)(F)c1nc(-c2ccc(Sc3ccccc3)cc2)no1 [Compound 1.1, 3-(4-phenylsulfanylphenyl)-5-(trifluoromethyl)-1,2,4-oxadiazole] | ≥ 80 | ≥ 80 | ≥ 80 | ≥ 80 |
| 91 to 97 | [O-][S+](c1ccccc1)c1ccc(-c2noc(C(F)(F)F)n2)cn1 (centres unmarked) [Compound 2.10, 3-[6-(benzenesulfinyl)-3-pyridyl]-5-(trifluoromethyl)-1,2,4-oxadiazole] | ≥ 80 | ≥ 80 | ≥ 80 | ≥ 80 |
| 71 to 83 | Cc1cc(C)cc([S+]([O-])c2ccc(-c3noc(C(F)(F)F)n3)cc2)c1 (centres unmarked) [Compound 2.12, 3-[4-(3,5-dimethylphenyl)sulfinyl-phenyl]-5-(trifluoromethyl)-1,2,4-oxadiazole] | ≥ 80 | ≥ 80 | ≥ 80 | ≥ 80 |
| 116 to 120 | [O-][S+](Cc1ccc(-c2noc(C(F)(F)F)n2)cn1)c1ccccc1 (centres unmarked) [Compound 2.28, 3-[6-(benzenesulfinylmethyl)-3-pyridyl]-5-(trifluoromethyl)-1,2,4-oxadiazole] | ≥ 80 | ≥ 80 | ≥ 80 | ≥ 80 |
| 52 to 58 | Fc1c(CSc2ccccc2)ccc(-c2noc(C(F)(F)F)n2)c1F [Compound 1.26, 3-[2,3-difluoro-4-(phenylsulfanylmethyl)phenyl]-5-(trifluoromethyl)-1,2,4-oxadiazole] | ≥ 80 | ≥ 80 | ≥ 80 | ≥ 80 |
| 128 to 132 | O=S(=O)(c1ccccc1)c1ccc(-c2noc(C(F)(F)F)n2)cc1 [Compound 3.1, 3-[4-(benzenesulfonyl)phenyl]-5-(trifluoromethyl)-1,2,4-oxadiazole] | ≥ 80 | ≥ 80 | ≥ 80 | ≥ 80 |
| 93 to 98 | COc1ccc([S+]([O-])c2ccc(-c3noc(C(F)(F)F)n3)cc2)cc1 (centres unmarked) [Compound 2.2, 3-[4-(4-methoxyphenyl)sulfinylphenyl]-5-(trifluoromethyl)-1,2,4-oxadiazole] | ≥ 80 | ≥ 80 | ≥ 80 | ≥ 80 |
| 55 to 60 | COc1ccc(Sc2ccc(-c3noc(C(F)(F)F)n3)cc2)cc1 [Compound 1.2, 3-[4-(4-methoxyphenyl)sulfanylphenyl]-5-(trifluoromethyl)-1,2,4-oxadiazole] | ≥ 80 | ≥ 80 | ≥ 80 | ≥ 80 |
| 97 to 106 | [O-][S+](c1ccccc1)c1ccc(-c2noc(C(F)(F)F)n2)cc1 (centres unmarked) [Compound 2.1, 3-[4-(benzenesulfinyl)phenyl]-5-(trifluoromethyl)-1,2,4-oxadiazole] | ≥ 80 | ≥ 80 | ≥ 80 | ≥ 80 |
| 93 to 100 | [O-][S+](CC(F)(F)F)c1ccc(-c2noc(C(F)(F)F)n2)cc1 (centres unmarked) [Compound 2.6, 3-[4-(2,2,2-trifluoroethylsulfinyl)phenyl]-5-(trifluoromethyl)-1,2,4-oxadiazole] | ≥ 80 | ≥ 80 | ≥ 80 | ≥ 80 |

From patent US20180319753A1, “MICROBIOCIDAL OXADIAZOLE DERIVATIVES” (SYNGENTA PARTICIPATIONS AG, priority 2015, published 2018)
